Where two headings read alike, the source gives them in different places.
Columns and labels:
[1] = system: Leishmania amazonensis promastigotes expressing beta-lactamase; experiment: microbe, parasite or virus in culture; assay type: cell-based; conditions: for IC50: Leishmania amazonensis
[2] = system: Trypanosoma cruzi Tulahuen cells expressing beta-galactosidase; experiment: T. cruzi intracellular assay (beta-galactosidase, L6 host cells); conditions: for IC50: Trypanosoma cruzi, TULAHUEN; for Selectivity L6/TC-I: Table 3A; for Selectivity L6/TC-I / Selectivity L6/Tc-I: estimated from highest L6 dose tested where no L6 IC50; for Selectivity L6/Tc-I: Table 3B
[3] = system: rat skeletal muscle cell line, L6; experiment: cells; assay type: cell-based
[4] = system: Trypanosoma brucei brucei 427 cells; experiment: T. brucei culture and assay (PrestoBlue); assay type: cell-based; conditions: for IC50: mean of 2(+) independent trials, read-out: IC50 T. brucei
[5] = read-out: IC50 T. cruzi, Table 1, intracellular assay, mean of 2(+) trials (^c one trial)
[6] = Rattus norvegicus, Table 1, read-out: IC50 Toxicity (L6)
[7] = read-out: IC50 T. cruzi, Table 2, intracellular assay, mean of 2(+) independent trials
[8] = read-out: IC50 TC-I, Table 3B, weighted means of two or more independent trials
[9] = Rattus norvegicus, Table 3B, weighted means of two or more independent trials, read-out: IC50 L6
[10] = Table 2, L6 IC50 / L. amazonensis IC50
[11] = Table 1, intracellular T. cruzi IC50
[12] = Table 2, L6 IC50 / T. cruzi IC50 (intracellular assay)
[13] = read-out: IC50 TC-I, Table 3A, weighted means of two or more independent trials
[14] = Rattus norvegicus, Table 3A, weighted means of two or more independent trials, read-out: IC50 L6
[15] = Table 2, L6 mammalian cells, read-out: IC50 Toxicity (L6)
[16] = read-out: IC50 L. amaz. (footnote c: value obtained from one trial)
[17] = Table 2, L6 IC50 / T. brucei IC50
[18] = Table 3B, estimated from highest L6 dose tested where no L6 IC50
[19] = Table 3A, estimated from highest L6 dose tested where no L6 IC50

| SMILES | IC50 ([1]; read-out: IC50 L. amaz.) [µM] | IC50 [2, 5] [µM] | IC50 [3, 6] [µM] | IC50 ([4]; Trypanosoma brucei, Table 1) [µM] | melting point [°C] | IC50 [2, 7] [µM] | IC50 [2, 8] [µM] | IC50 [3, 9] [µM] | Selectivity L6/La ([1]; Table 1) | Selectivity L6/La [1, 10] | Selectivity L6/Tc [2, 11] | Selectivity L6/Tc [2, 12] | other results |
| --- | --- | --- | --- | --- | --- | --- | --- | --- | --- | --- | --- | --- | --- |
| O=C1/C(=C/c2cccs2)Oc2c1ccc(O)c2O [Aurone 1001, (Z)-6,7-dihydroxy-2-(thiophen-2-ylmethylene)benzofuran-3(2H)-one] | 22.9 | > 50 | 50.6 | 25.3 | 168 to 170 | – | – | – | – | – | – | – | – |
| O=C1/C(=C/c2ccccc2C(F)(F)F)Oc2ccccc21 [Aurone 9086, (Z)-2-(2-(trifluoromethyl)benzylidene)benzofuran-3(2H)-one] | 1.9 | 18.5 | 130 | 37.6 | 118 to 123 | 18.5 | – | – | – | – | – | – | – |
| O=C1/C(=C/c2ccc(CO)o2)Oc2ccccc21 [Aurone 9067, (Z)-2-((5-(hydroxymethyl)furan-2-yl)methylene)benzofuran-3(2H)-one] | < 1 | 12.5 | 31.1 | 34.9 | 61 to 63 | 12.5 | 12.5 | 31.1 | – | – | – | – | IC50 ([2]; read-out: T. cruzi IC50 dose): 12.5 µM; IC50 ([3]; Rattus norvegicus, read-out: toxicity in L6): 31.1 µM |
| O=C1/C(=C/c2ccc(I)cc2)Oc2ccccc21 [Aurone 9029, (Z)-2-(4-iodobenzylidene)benzofuran-3(2H)-one] | 3.11 | 11.1 | > 100 | > 50 | 176 to 179 | 11.1 | – | – | >32.15 | >32.15 | >9.04 | >9.04 | Selectivity L6/TC-I [2]: >9.04; IC50 [2, 13]: 11.1 µM; IC50 [3, 14]: > 100 µM; IC50 [3, 15]: > 100 µM; IC50 ([4]; Table 2): > 50 µM |
| CCCCc1ccc(/C=C2\Oc3ccccc3C2=O)cc1 [Aurone 3009, (Z)-2-(4-butylbenzylidene)benzofuran-3(2H)-one] | 2.36 | > 50 | 35 | > 50 | 80 to 81 | > 50 | – | – | 14.84 | 14.84 | – | – | Selectivity L6/TC-I [2]: 4.38; IC50 [2, 13]: 7.99 µM; IC50 [3, 14]: 35 µM; IC50 ([4]; Table 2): > 50 µM |
| O=C1/C(=C/c2sccc2Br)Oc2ccccc21 [Aurone 9060] | 1.36 | 34.6 | > 100 | > 50 | 176 to 180 | 34.6 | 34.6 | > 100 | – | – | – | – | – |
| O=C1/C(=C/c2ccc(C(F)(F)F)cc2)Oc2ccccc21 [Aurone 9084, (Z)-2-(4-(trifluoromethyl)benzylidene)benzofuran-3(2H)-one] | 2.94 | 9.38 | > 400 | 20.4 | 98 to 102 | 9.38 | – | – | – | – | – | – | – |
| COc1ccc2c(c1)O/C(=C\c1ccc(C#N)cc1)C2=O [Aurone 5006, (Z)-4-((6-methoxy-3-oxobenzofuran-2(3H)-ylidene)methyl)benzonitrile] | 4.79 | > 50 | 213 | 30.3 | 180 to 181 | > 50 | – | – | – | – | – | – | – |
| CCc1ccc(/C=C2\Oc3ccccc3C2=O)cc1 [Aurone 8001, (Z)-2-(4-ethylbenzylidene)benzofuran-3(2H)-one] | 6.42 | 11.4 | > 100 | 46.5 | 71 to 74 | 11.4 | – | – | – | – | – | – | IC50 [1, 16]: 6.42 µM |
| O=C1/C(=C/c2ccsc2)Oc2ccccc21 [Aurone 3004, (Z)-2-(thiophen-3-ylmethylene)benzofuran-3(2H)-one] | 24.2 | 9.02 | > 100 | 38.7 | 125 to 126 | 9.02 | 9.02 | > 100 | >4.13 | >4.13 | >11.09 | >11.09 | Selectivity L6/Tc-I [2]: >11.09; IC50 ([2]; read-out: T. cruzi IC50 dose): 9.02 µM; IC50 [3, 15]: > 100 µM; activity against T. brucei [4]: moderate activity; Selectivity L6/Tb ([4]; Table 1): >2.58; Selectivity L6/Tb [4, 17]: >2.58; Selectivity L6/Tb [4, 18]: >2.58 |
| O=C1/C(=C/c2cc3ccccc3o2)Oc2ccccc21 [Aurone 3002, (Z)-2-(benzofuran-2-ylmethylene)benzofuran-3(2H)-one] | 6.48 | 6.44 | > 100 | 20.2 | 145 to 150 | 6.44 | 6.44 | > 100 | >15.43 | >15.43 | >15.53 | >15.53 | Selectivity L6/Tc-I [2]: >15.53; IC50 [3, 15]: > 100 µM; Selectivity L6/Tb ([4]; Table 1): >4.96; Selectivity L6/Tb [4, 17]: >4.96; Selectivity L6/Tb [4, 18]: >4.96 |
| O=C1/C(=C/c2ccc(Br)s2)Oc2ccccc21 [Aurone 9058, (Z)-2-((5-bromothiophen-2-yl)methylene)benzofuran-3(2H)-one] | 2.73 | 34.8 | 79.3 | > 50 | 155 to 158 | 34.8 | 34.8 | 79.3 | 29.05 | 29.05 | 2.28 | 2.28 | Selectivity L6/Tc-I [2]: 2.28; IC50 ([4]; Table 2): > 50 µM |
| COc1cccc(/C=C2\Oc3ccc(C)cc3C2=O)c1O [Aurone 4003, (Z)-2-(2-hydroxy-3-methoxybenzylidene)-5-methylbenzofuran-3(2H)-one] | 13.4 | > 50 | > 100 | 27.7 | 134 to 137 | – | – | – | >7.45 | – | – | – | Selectivity L6/Tb ([4]; Table 1): >3.61 |
| O=C1/C(=C/c2ccccc2Br)Oc2ccccc21 [Aurone 9006, (Z)-2-(2-bromobenzylidene)benzofuran-3(2H)-one] | < 1 | 21.3 | 226 | 28.3 | 134 to 140 | 21.3 | – | – | >226.08 | >226.08 | 10.61 | 10.61 | IC50 [1, 16]: < 1 µM; Selectivity L6/TC-I [2]: 10.61; IC50 [2, 13]: 21.3 µM; IC50 [3, 14]: 226 µM; Selectivity L6/Tb ([4]; Table 1): 7.98; Selectivity L6/Tb [4, 17]: 7.98; Selectivity L6/Tb [4, 19]: 7.98 |
| O=C1/C(=C/c2cccc3[nH]ccc23)Oc2ccccc21 [Aurone 9063, (Z)-2-((1H-indol-4-yl)methylene)benzofuran-3(2H)-one] | 1.13 | 18.9 | 94 | > 50 | 230 to 238 | 18.9 | 18.9 | 94 | – | – | – | – | – |
| O=C1/C(=C/c2ccccc2F)Oc2ccccc21 [Aurone 9004, (Z)-2-(2-fluorobenzylidene)benzofuran-3(2H)-one] | 10.5 | 22 | 176 | > 50 | 76 to 81 | 22 | – | – | 16.83 | 16.83 | 8.00 | 8.00 | IC50 [1, 16]: 10.5 µM; Selectivity L6/TC-I [2]: 8.00; IC50 [2, 13]: 22 µM; IC50 [3, 14]: 176 µM; IC50 ([4]; Table 2): > 50 µM |
| COc1cc(Br)c(/C=C2\Oc3ccccc3C2=O)cc1OC [Aurone 9056, (Z)-2-(2-bromo-4,5-dimethoxybenzylidene)benzofuran-3(2H)-one] | 1.83 | 36 | > 100 | 21.9 | 144 to 147 | 36 | – | – | – | – | – | – | – |
| COc1ccc2c(c1)O/C(=C\c1ccc(Br)cc1)C2=O [Aurone 5005, (Z)-2-(4-bromobenzylidene)-6-methoxybenzofuran-3(2H)-one] | 14.3 | > 50 | 181 | 47.2 | 153 | > 50 | – | – | – | – | – | – | – |
| O=C1/C(=C/c2ccccc2Cl)Oc2ccccc21 [Aurone 9007, (Z)-2-(2-chlorobenzylidene)benzofuran-3(2H)-one] | 17.5 | 12.7 | 238 | 11.3 | 118 to 126 | 12.7 | – | – | 13.55 | 13.55 | 18.72 | 18.72 | IC50 [1, 16]: 17.5 µM; Selectivity L6/TC-I [2]: 18.72; IC50 [2, 13]: 12.7 µM; IC50 [3, 14]: 238 µM; Selectivity L6/Tb ([4]; Table 1): 21.02; Selectivity L6/Tb [4, 17]: 21.02; Selectivity L6/Tb [4, 19]: 21.02 |

Reference: US20200399238A1, “THERAPEUTIC AURONES” (MIDDLE TENNESSEE STATE UNIVERSITY, priority 2016, published 2020)
